# From article PMC2120771 (The Journal of Cell Biology, 1996)
# Tests used:
# [1] = tested on: profilin-VASP; conditions: in vitro; ref Reinhard et al., 1995; cited from earlier work
# [2] = tested on: Shigella flexneri M90T; assay: Shigella intracellular motility in PtK2 cells before and after microinjection; assay type: cell-based
# [3] = tested on: Listeria monocytogenes; conditions: microinjection; ref Southwick and Purich, 1995; cited from earlier work
# [4] = intracellular concentration 10 μM
# [5] = intracellular 80 nM, 2-4 min after microinjection
substance,measurement,setting,value
(GPPPPP)3 [VASP peptide],Dissociation of profilin from VASP,[1],can dissociate profilin from VASP in vitro
same,Intracellular concentration that inhibits Shigella movement,"[2]; PtK2 cells, microinjection, estimated intracellular concentration",10 µM
same,Postinjection/preinjection velocity,[2]; [4],0.15
same,Postinjection velocity,"[2]; intracellular concentration 10 μM, mean, SD",0.02 - 0.05 μm/s
same,Effect on Shigella motility,"[2]; intracellular concentrations 2 and 6 μM (Fig. 7 B), large standard deviations",variable inhibition
CFEFPPPPTDE [Act A peptide],Time after injection at which bacterial motility ceases,"[2]; 800 nM needle concentration, estimated intracellular concentration 80 nM",≤ 30 s
same,Time after injection at which phase-dense actin tails disappear,[2]; estimated intracellular concentration 80 nM,≤ 30 s
same,Fraction of bacteria that resume migration,[2]; [5],One quarter
same,Rate of resumed movement relative to velocities measured before injection,[2]; [5],25-30%
same,Effect on Shigella intracellular movement,[2]; intracellular concentration 8 nM (Fig. 5 B),fails to inhibit
same,Postinjection/preinjection velocity,[2]; intracellular concentration 80 nM,0.07
same,Effect on Shigella intracellular movement,[2]; intracellular concentrations 400-800 nM (Fig. 5 B),consistently block intracellular movement
"VKSKIGSTDNIKYZPKGG [MAP-2 peptide, reference compound]",Postinjection/preinjection velocity,[2]; [4],1.00
YDPAPPPPPP [mosquito oostatic factor],Effect on Listeria locomotion,[3],inhibits Listeria locomotion
poly-L-proline [reference compound],Effect on Shigella velocity,"[2]; increasing intracellular concentrations (Fig. 8 A), each point mean of 20-40 velocity measurements",dose-dependent slowing of bacterial velocity
